# Values quoted from earlier work in patent US20040087564A1, “Delivery composition and method” (priority 2002, published 2004).
smiles,measurement,setting,value
C[C@]12CC[C@H]3[C@@H](CCC4=CC(=O)CC[C@@]43C)[C@@H]1CC[C@@H]2O [testosterone],true testosterone disposition half-life,in rabbits,~15 min
same,testosterone clearance,"male rabbit, Bourget et al., Steroids 43:225-233 (1984)",29.2 mL/min/kg
